For assay [1], the system named is UACC 903 and 1205 Lu cells. Kind of assay: Caspase-3/7 apoptosis assay. It is filed as cell-based, human. To be noted: 0.62 to 10 μmol/L, 24 hours. The method, then:
(§1) The mechanistic basis of leelamine's activity to inhibit melanoma cell growth is determined by examining the effect of leelamine on 1) cell viability using the MTS assay; 2) proliferation using a BrdU incorporation assay; 3) apoptosis using an assay for caspase-3/7 activity; and 4) cell cycle analysis. The MTS assay as described in Sharma, A. et al., Clin Cancer Res, 2009, 15:1674-85; and Madhunapantula, S. V. et al., Mol Cancer Ther, 2008, 7:1297-308 is used to assay cell viability. Rates of proliferation and apoptosis are measured by seeding 5×10^3 cells in 96-well plates, followed by treatment with 0.62 to 10 μmol/L of leelamine for 24 hours. Proliferating and apoptotic cells are quantified using a colorimetric cell proliferation ELISA BrdU kit (Roche diagnostics, Indianapolis, Ind.) or Apo-ONE Homogenous caspase-3/7 assay kit (Promega, Madison, Wis.), respectively, as described in Sharma, A. et al., Clin Cancer Res, 2009, 15:1674-85; and Madhunapantula, S. V. et al., Mol Cancer Ther, 2008, 7:1297-308.

For assay [2], the system named is GFP expressing UACC 903 melanoma cells in skin reconstructs. Kind of assay: Topical treatment of melanoma tumors in skin reconstructs. It is filed as cell-based, human. As to conditions: topical 2.5, 5 and 10 uM for 8 days. The method, then: In this example, the effect of leelamine on melanoma tumors developing in skin reconstructs is tested by topical application. Skin reconstructs are generated by mixing GFP expressing UACC 903 melanoma cells with human normal fibroblasts (FF2441) and keratinocytes (HFK) followed by growing in a 37° C. incubator for 7 days. Beginning from day 8, completely developed skins containing melanoma tumors are treated with increasing concentrations of Leelamine (2.5, 5 and 10 uM in 200 uL PBS) or PBS vehicle alone for an additional 8 more days. The sizes of developing tumors, in terms of area occupied by GFP are measured. […] Also shown in FIG. 22 are images of control and treated cells.

The subject of assay [3] is normal cells (melanocytes FOM103, fibroblasts FF2441, keratinocytes HFK). Kind of assay: MTS assay, leelamine on normal cells. It is filed as cell-based. To be noted: Homo sapiens, 72 hour exposure, read-out: concentration to kill 50% of normal cells. The method, then: The efficacy of leelamine to kill other cancer types is measured and the IC50 for cell lines derived from carcinomas of breast, lung, prostate, connective tissue, pancreas and colon determined. The MTS assay as described in Sharma, A. et al., Clin Cancer Res, 2009, 15:1674-85; and Madhunapantula, S. V. et al., Mol Cancer Ther, 2008, 7:1297-308 is used to establish the IC50 at 24, 48 and 72 hours of leelamine treatment for normal human epidermal melanocytes (FOM103), normal skin fibroblast cells (FF2441), normal skin keratinocytes (HFK) and compared to melanocytic lesion cells from the radial-, vertical- and metastatic melanoma stages. […] IC50 values for each compound in μmol/L for respective cell lines are measured from three independent experiments using GraphPad Prism version 4.01 (GraphPad Software, La Jolla, Calif.). […]
5×10^3 cells per well in 100 μL of media are plated and grown in a 96-well plate for 48 to 72 hours and treated with either DMSO vehicle control or 0.62 to 40 μmol/L of leelamine for 24, 48 or 72 hours. IC50 values for each compound in μmol/L for respective cell lines are measured from three independent experiments using GraphPad Prism version 4.01 (GraphPad Software, La Jolla, Calif.).
(Tetrazolium dyes change colour on reduction, which living cells bring about.)

The next assay deals with UACC 903 melanoma cells. Kind of assay: Natural product library NPL-480 primary screen, MTS viability. In kind it is cell-based. To be noted: Homo sapiens, 5 μmol/L, 24 hours, MTS assay, read-out: decrease of cell viability. The protocol: Natural product library NPL-480 (from TimTec Inc., Newark, Del.) consisting of 480 compounds derived from plants, animal, bacteria and fungus is screened using MTS assay to identify agents reducing cell growth of melanoma cells. Compounds of the NPL-480 library that are supplied as powders or oils are dissolved in DMSO to a stock concentration of 10 mM and stored at −20° C. DMSO concentrations in the reaction mixture are controlled to not exceed 0.5% (vol/vol). 5×10^3 UACC 903 melanoma cells are plated in 96 well plates for 24 hours followed by treatment with each compound at 5 μmol/L for 24 hours. Viability is measured using the MTS assay as described in Sharma, A. et al., Clin Cancer Res, 2009, 15:1674-85; and Madhunapantula, S. V. et al., Mol Cancer Ther, 2008, 7:1297-308. This primary screen identified 12 compounds effective to decrease melanoma cells viability by ˜50% or more.

For assay [4], the system named is non-melanoma cancer cell lines. Kind of assay: MTS assay, leelamine on non-melanoma cancer cell lines. In kind it is cell-based. As to conditions: breast, lung, prostate, connective tissue, pancreas, colon lines. The protocol: The efficacy of leelamine to kill other cancer types is measured and the IC50 for cell lines derived from carcinomas of breast, lung, prostate, connective tissue, pancreas and colon determined. The MTS assay as described in Sharma, A. et al., Clin Cancer Res, 2009, 15:1674-85; and Madhunapantula, S. V. et al., Mol Cancer Ther, 2008, 7:1297-308 is used to establish the IC50 at 24, 48 and 72 hours of leelamine treatment for normal human epidermal melanocytes (FOM103), normal skin fibroblast cells (FF2441), normal skin keratinocytes (HFK) and compared to melanocytic lesion cells from the radial-, vertical- and metastatic melanoma stages. 5×10^3 cells per well in 100 μL of media are plated and grown in a 96-well plate for 48 to 72 hours and treated with either DMSO vehicle control or 0.62 to 40 μmol/L of leelamine for 24, 48 or 72 hours. IC50 values for each compound in μmol/L for respective cell lines are measured from three independent experiments using GraphPad Prism version 4.01 (GraphPad Software, La Jolla, Calif.). Leelamine is found to be not toxic to normal cells and effective to kill melanoma cells as well as non-melanoma cancer cells as shown in Table 1 in FIG. 20. Leelamine is 3- to 4-fold more specific at killing metastatic melanoma than normal cells, supporting cancer therapeutic utility at concentrations<2 μmol/L.

The subject of assay [5] is UACC 903 and 1205 Lu melanoma cells. The assay can be described thus: Cell cycle analysis (propidium iodide, FACScan). It is filed as cell-based, human. As to conditions: 2 or 3 μmol/L, 24 h. The method, then: Analysis of the effects of leelamine on cell cycle is performed by growing UACC 903 and 1205 Lu melanoma cells in 100-mm culture dishes followed by treatment with 2 or 3 μmol/L of leelamine for 24 h. Total floating and adherent cells are collected following trypsinization and stained using 1 mL propidium iodide solution containing 100 μg/mL propidium iodide; (Sigma, St Louis, Mo.), 20 μg/mL Ribonuclease A (Roche diagnostics, Indianapolis, Ind.) and 3 μg/mL Triton X-100 dissolved in 0.1% (W/V) sodium citrate for 30 m at 4° C. Stained cells are analyzed using the FACScan analyzer (Becton Dickinson, Franklin lakes, NJ) and data processed utilizing ModFit LT software (Verity Software House, Topsham, Me.) as described in Sharma, A. et al., Clin Cancer Res, 2009, 15:1674-85; and Madhunapantula, S. V. et al., Mol Cancer Ther, 2008, 7:1297-308.

For assay [6], the system named is UACC 903 and 1205 Lu cells. Kind of assay: BrdU incorporation proliferation assay. In kind it is cell-based, human. To be noted: 0.62 to 10 μmol/L, 24 hours. The protocol:
as §1

Turning to `CC(C)c1ccc2c(c1)CCC1[C@](C)(CN)CCC[C@]21C` (stereo partly drawn) [Leelamine, [(1R,4aS)-1,4a-dimethyl-7-(propan-2-yl)-1,2,3,4,4a,9,10,10a-octahydrophenanthren-1-yl]methanamine], the “apoptosis (caspase-3/7 activity)” value in assay [1] is “increase apoptosis”. For the same compound, the “melanoma tumor growth in skin reconstructs (GFP area)” value in assay [2] is “inhibits melanoma tumor growth”. Moreover, the results for the IC50 in assay [3] and in assay [4] were 5 to 8 µM and 1 to 10 µM, respectively. The cytotoxicity at 5 µM in the assay on UACC 903 melanoma cells was around 95%. The cell cycle distribution result in assay [5] was “increased percentage of sub-G0-G1 and G0/G1 cell populations, with a corresponding decrease in S-phase population”. In assay [6], the “proliferation (BrdU incorporation)” value is recorded as “decrease proliferation”.

The values are drawn from US9839618B2, “Compositions and methods relating to proliferative diseases” (The Penn State Research Foundation, priority 2010, dated 2017).
